Values of other authors, collected in patent US20190269627A1, “MEMANTINE COMBINATIONS AND USE” (Chase Pharmaceuticals Corporation, priority 2016, published 2019).

Tested on: mice
Settings: 2 mg/kg

## CC12CC3CC(C)(C1)CC(N)(C3)C2 [memantine, 3,5-dimethyladamantan-1-amine]
  effect on scopolamine-induced learning deficits in the water maze: reverses scopolamine-induced learning deficits
